Marks after values point to notes of the source that are not given here.
Tests used:
[1] = system: membrane receptors of human breast cancer cells; assay: Receptor binding affinity for human breast cancer cell membranes, labelled [D-Trp6]LHRH as ligand
Experimental: Affinity for peptides to human breast cancer cell membranes is determined by using labelled LHRH and [D-Trp⁶]LHRH. The assay is carried out similarly to that described by T. Kadar et al., Proc. Natl. Acad. Sci. USA, 85, 890-894 (1988) and M. Fekete et al., Endocrinology, 124, 946-955 (1989).
(§1) Table 2 presents the antiovulatory activity and human breast cancer cell membrane receptor binding affinity of the claimed compounds having LHRH-inhibiting properties. The inhibitory action was determined in vivo, in 4-day cycling rats as described [A. Corbin and C. W. Beattie, Endocr. Res. Commun., 2, 1-23 (1975)].

[2] = system: rat pituitary cell; conditions: LH-releasing activity compared to that produced by 3 nM LH-RH; peptide infused for 3 minutes
Experimental: Ability of compounds to influence LH release in vitro is assayed by using a superfused rat pituitary cell system [S. Vigh and A. V. Schally, Peptides, 5 Suppl.
LH-releasing effect of compounds is determined as follows: each peptide is perfused through the cells for 3 min (1 ml perfusate) at 20-100 pM. LH content of 1 ml fractions collected is determined by radioimmunoassay (RIA). Potency of peptides is compared to that of 3 nM LHRH perfused similarly.
The peptide was infused for 3 minutes at various concentration, and the amount of LH released was compared to that released by 3 nM LHRH.

[3] = system: 4-day-cycling rats; assay: In vivo antiovulatory activity; conditions: 10 µg per rat
Experimental: This activity of the peptides is determined in 4-day-cycling rats as described [A. Corbin and C. W. Beattie, Endocr. Res. Commun., 2, 1-23 (1975)].
as §1

[4] = system: MCF-7 human breast cancer cell line; assay: Cytotoxicity test: inhibition of 3H-thymidine incorporation into DNA; format: cell-based
Experimental: Ability of peptides of Formula I to inhibit incorporation of [³H]thymidine into DNA of monolayer cultures the human mammary tumor cell line MCF-7 is assayed as described [V. K. Sondak et al., Cancer Research, 44, 1725-1728 (1984); F. Holzel et al., J. Cancer Res. Clin. Oncol. 109, 217-226 (1985); M. Albert et al., J. Cancer Res. Clin. Oncol. 109, 210-216 (1985)].
200,000 cells in 200 µl of […] + 2% CFBS were incubated with 1,5 or 10 µg cytotoxic analogs for 3 hours or 23 hours then 1 µCi ³H-thymidine added and incubated an additional 60 min. DNA extracted with 1 N perchloric acid and the radioactivity measured.

[5] = system: human mammary cell line MDA-MB-231; conditions: 10µg dose; cited from earlier work
[6] = Table 1, ¹²⁵I-[D-Trp]⁶LHRH used as labelled ligand
[7] = Table 2, ¹²⁵I-[D-Trp]⁶ LHRH used as the labelled ligand

pGlu-His-Trp-Ser-Tyr-D-Lys(MTX)-Leu-Arg-Pro-Gly-NH₂ [2A]
Affinity Constant Ka1 [1, 6]: 5.42 nM⁻¹
Affinity Constant Ka2 [1, 6]: 1.59 µM⁻¹

CC(C)C[C@H](NC(=O)[C@@H](CCCCNC(=O)CCCC(=O)OCc1ccc2c(c1)C(=O)c1ccccc1C2=O)NC(=O)[C@H](Cc1ccc(O)cc1)NC(=O)[C@H](CO)NC(=O)[C@H](Cc1c[nH]c2ccccc12)NC(=O)[C@H](Cc1c[nH]cn1)NC(=O)[C@@H]1CCC(=O)N1)C(=O)N[C@@H](CCCNC(=N)N)C(=O)N1CCC[C@H]1C(=O)NCC(N)=O [compound 1, pGlu-His-Trp-Ser-Tyr-D-Lys(HMAQG)-Leu-Arg-Pro-Gly-NH₂]
Relative Activity [2]: 35

Ac-Nal(2)-D-Phe(4Cl)-D-Trp-Ser-Arg-D-Lys[A₂pr(HMAQG)₂]-Leu-Arg-Pro-D-Ala-NH₂ [compound 3]
Affinity Constant Ka1 [1, 7]: 7.05 nM⁻¹
Affinity Constant Ka2 [1, 7]: 8.6 µM⁻¹
%Ovulation Blockade [3]: 0%
% Inhibition at 24 hrs ([4]; Dose 1 µg/ml): 3%
% Inhibition at 24 hrs ([4]; Dose 10 µg/ml): 11%

Ac-Nal(2)-D-Phe(4Cl)-D-Pal(3)-Ser-Arg-D-Lys[A₂pr(HMAQG)₂]-Leu-Arg-Pro-D-Ala-NH₂ [compound 4]
Affinity Constant Ka1 [1, 7]: 2.28 nM⁻¹
%Ovulation Blockade [3]: 40%
% Inhibition at 4 hrs ([4]; Dose 1 µg/ml): 31** %
% Inhibition at 24 hrs ([4]; Dose 1 µg/ml): 15%
% Inhibition at 4 hrs ([4]; Dose 10 µg/ml): 28** %
% Inhibition at 24 hrs ([4]; Dose 10 µg/ml): 40** %

pGlu-His-Trp-Ser-Tyr-D-Lys(MTX)-Leu-Arg-Pro-Gly-NH₂ [2B]
Affinity Constant Ka1 [1, 6]: 0.63 nM⁻¹

pGlu-His-Trp-Ser-Tyr-D-Lys[Ahx-A₂bu(SAL)₂(Cu)]-Leu-Arg-Pro-Gly-NH₂
inhibits the [³H]thymidine incorporation into DNA [5]: 87%

Reference: EP0450461B1, “LHRH Analogs” (The Administrators of The Tulane Educational Fund, priority 1990, dated 1991)
